For one experiment, the target named is T1, human cathepsin F (Homo sapiens, UniProt Q9UBX1).
T1 sequence (Q9UBX1 271-484): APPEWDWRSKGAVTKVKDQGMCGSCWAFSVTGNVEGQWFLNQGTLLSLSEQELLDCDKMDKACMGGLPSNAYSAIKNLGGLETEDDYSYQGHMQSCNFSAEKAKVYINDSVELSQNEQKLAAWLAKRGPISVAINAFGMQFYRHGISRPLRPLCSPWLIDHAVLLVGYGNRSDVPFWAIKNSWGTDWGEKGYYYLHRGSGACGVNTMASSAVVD
Put plainly: Cathepsin F assay (hCat F). Type of experiment: biochemical. The settings on record: human cathepsin F 10 nM, Z-Phe-Arg-AMC 8 μM, pH 5.5, 15 min preincubation; read-out: hCat F IP. As to the method:
Cathepsin F assay (hCat F)
(§1) Serial dilutions (⅓) from 500 μM down to 0.025 μM of test compounds were prepared in dimethyl sulfoxide (DMSO). Then 0.5 μL of DMSO from each dilution were added to 18.75 μL of assay buffer (MES, 50 mM (pH 5.5); EDTA, 2.5 mM; DTT, 2.5 mM and 10% DMSO) containing human cathepsin F (10 nM) in assay buffer solution. The assay solutions were mixed for 5-10 seconds on a shaker plate and incubated for 15 minutes at room temperature. Z-Phe-Arg-AMC (8 μM) in 6.25 μL of assay buffer was added to the assay solutions. Hydrolysis of the coumarin leaving group (AMC) was followed by spectrofluorometry (Exp, =360 nm; EmX=460 nm) for 20 minutes. Percent of inhibition were calculated by fitting experimental values to standard mathematical model for dose response curve.

The target in a further experiment is human cathepsin K (UniProt P43236). The experiment in a line: Cathepsin K Assay (hrbCat K). The note with it: human cathepsin K 0.4 nM, Z-Leu-Arg-AMC 8 μM, pH 5.5, 15 min preincubation; read-out: hrbCat K IP. Type of experiment: biochemical. As for the experimental part: Cathepsin K Assay (hrbCat K)
as §1, with “K (0.4” for “F (10”, “Z-Leu-Arg-AMC” for “Z-Phe-Arg-AMC”, “(Exλ=360” for “(Exp, =360”, “Emλ=460” for “EmX=460”, “30” for “20”

Regarding `N#CC1(NC(=O)[C@@H]2CCCC[C@H]2c2oc(-c3cccnn3)nc2-c2ccc(N3CCS(=O)(=O)CC3)cc2)CC1` [Example 97, (1R,2R)-N-(1-cyanocyclopropyl)-2-(4-(4-(1,1-dioxidothiomorpholino)phenyl)-2-(pyridazin-3-yl)oxazol-5-yl)cyclohexanecarboxamide], the IC50 was determined as 2550 nM on human cathepsin F and 2.83 nM on human cathepsin K.

Regarding `N#CC1(NC(=O)[C@@H]2CCCC[C@H]2c2oc(-c3ccccc3OC(F)(F)F)nc2-c2ccc(N3CCS(=O)(=O)CC3)cc2)CC1` [Example 63, (1R,2R)-N-(1-cyanocyclopropyl)-2-(4-(4-(1,1-dioxidothiomorpholino)phenyl)-2-(2-(trifluoromethoxy)phenyl)oxazol-5-yl)cyclohcxanecarboxamide], the IC50 at human cathepsin F was found to be 639 nM; on human cathepsin K, 1.23 nM.

On to `N#CC1(NC(=O)[C@@H]2CCCC[C@H]2c2oc(Cc3ccccc3)nc2-c2ccc(N3CCS(=O)(=O)CC3)cc2)CC1` [Example 50, (1R,2R)-2-(2-benzyl-4-(4-(1,1-dioxidothiomorpholino)phenyl)oxazol-5-yl)-N-(1-cyanocyclopropyl) cyclohexanecarboxamide], for which the IC50 stood at 698 nM on human cathepsin F and 1.6 nM on human cathepsin K.

`N#CC1(NC(=O)[C@@H]2CCCC[C@H]2c2oc(-c3cccc(C(F)(F)F)c3)nc2-c2ccc(N3CCS(=O)(=O)CC3)cc2)CC1` [Example 66, (1R,2R)-N-(1-cyanocyclopropyl)-2-(4-(4-(1,1-dioxidothiomorpholino)phenyl)-2-(3-(trifluoromethyl)phenyl)oxazol-5-yl)cyclohexanecarboxamide]: the IC50 stood at 454 nM at human cathepsin F and 1.21 nM at human cathepsin K. Consider `N#CC1(NC(=O)[C@@H]2CCCC[C@H]2c2oc(-c3ccc(F)cc3F)nc2-c2ccc(N3CCS(=O)(=O)CC3)cc2)CC1` [Example 27, (1R,2R)-N-(1-cyanocyclopropyl)-2-(2-(2,4-difluorophenyl)-4-(4-(1,1-dioxidothiomorpholino)phenyl)oxazol-5-yl)cyclohexanecarboxamide], for which the IC50 came out at 681 nM at human cathepsin F and 0.37 nM on human cathepsin K.

With `N#CC1(NC(=O)[C@@H]2CCCC[C@H]2c2oc(-c3ccc(F)cc3)nc2-c2ccc(N3CCS(=O)(=O)CC3)cc2)CC1` [Example 7, (1R,2R)—N-(1-Cyanocyclopropyl)-2-{4-[4-(1,1-dioxo-1λ^6-thiomorpholin-4-yl)phenyl]-2-(4-fluorophenyl)-1,3-oxazol-5-yl}cyclohexanecarboxamide], the IC50 on human cathepsin F amounted to 840 nM; on human cathepsin K, 1.49 nM.

As to `COc1cccc(-c2nc(-c3ccc(N4CCS(=O)(=O)CC4)cc3)c([C@@H]3CCCC[C@H]3C(=O)NC3(C#N)CC3)o2)c1` [Example 71, (1R,2R)-N-(1-cyanocyclopropyl)-2-(4-(4-(1,1-dioxidothiomorpholino)phenyl)-2-(3-methoxyphenyl)oxazol-5-yl)cyclohexanecarboxamide], the IC50 on human cathepsin F came out at 511 nM; at human cathepsin K it was 1.59 nM. Take `N#CC1(NC(=O)[C@@H]2CCCC[C@H]2c2oc(C(F)(F)F)nc2-c2ccc(N3CCS(=O)(=O)CC3)cc2)CC1` [Example 13, (1R,2R)-N-(1-cyanocyclopropyl)-2-(4-(4-(1,1-dioxidothiomorpholino)phenyl)-2-(trifluoromethyl)oxazol-5-yl)cyclohexanecarboxamide]: the IC50 on human cathepsin F worked out at 628 nM; at human cathepsin K it was 0.46 nM.

Regarding `N#CC1(NC(=O)[C@@H]2CCCC[C@H]2c2oc(-c3ccc(F)cc3Cl)nc2-c2ccc(N3CCS(=O)(=O)CC3)cc2)CC1` [Example 37, (1R,2R)-2-(2-(2-chloro-4-fluorophenyl)-4-(4-(1,1-dioxidothiomorpholino)phenyl)oxazol-5-yl)-N-(1-cyanocyclopropyl) cyclohexanecarboxamide], the IC50 is 353 nM on human cathepsin F and 0.72 nM on human cathepsin K. For `N#CC1(NC(=O)[C@@H]2CCCC[C@H]2c2oc(C3(C(F)(F)F)CC3)nc2-c2ccc(N3CCS(=O)(=O)CC3)cc2)CC1` [Example 110, (1R,2R)-N-(1-cyanocyclopropyl)-2-(4-(4-(1,1-dioxidothiomorpholino)phenyl)-2-(1-(trifluoromethyl)cyclopropyl)oxazol-5-yl)cyclohexanecarboxamide], in that order: 931 nM and 1.1 nM. Take `CC(C#N)NC(=O)[C@@H]1CCCC[C@H]1c1oc(-c2ccc(F)cc2)nc1-c1ccc(N2CCS(=O)(=O)CC2)cc1` (single isomer, unassigned) [Example 121, (1R,2R)-N-((R or S)-1-cyanoethyl)-2-(4-(4-(1,1-dioxidothiomorpholino)phenyl)-2-(4-fluorophenyl)oxazol-5-yl)cyclohexanecarboxamide]: the IC50 at human cathepsin F is no less than 10000 nM; at human cathepsin K, 24.1 nM.

Regarding `N#CC1(NC(=O)[C@@H]2CCCC[C@H]2c2oc(-c3ccc(Cl)cc3)nc2-c2ccc(N3CCS(=O)(=O)CC3)cc2)CC1` [Example 38, (1R,2R)-2-(2-(4-chlorophenyl)-4-(4-(1,1-dioxidothiomorpholino)phenyl)oxazol-5-yl)-N-(1-cyanocyclopropyl) cyclohexanecarboxamide], the IC50 turned out to be 308 nM on human cathepsin F and 1.28 nM at human cathepsin K. Regarding `CC(C)(C)c1nc(-c2ccc(N3CCS(=O)(=O)CC3)cc2)c([C@@H]2CCCC[C@H]2C(=O)NC2(C#N)CC2)o1` [Example 11, (1R,2R)-2-(2-(tert-butyl)-4-(4-(1,1-dioxidothiomorpholino)phenyl)oxazol-5-yl)-N-(1-cyanocyclopropyl) cyclohexanecarboxamide], the IC50 is 681 nM on human cathepsin F and 0.69 nM on human cathepsin K. `N#CC1(NC(=O)[C@@H]2CCCC[C@H]2c2oc(-c3cccc(OC(F)F)c3)nc2-c2ccc(N3CCS(=O)(=O)CC3)cc2)CC1` [Example 68, (1R,2R)-N-(1-cyanocyclopropyl)-2-(2-(3-(difluoromethoxy)phenyl)-4-(4-(1,1-dioxidothiomorpholino)phenyl)oxazol-5-yl)cyclohexanecarboxamide]: the values for the IC50 on human cathepsin F and at human cathepsin K were 502 nM and 1.04 nM, respectively. Regarding `CC(C#N)NC(=O)[C@@H]1CCCC[C@H]1c1oc(-c2ccc(F)cc2F)nc1-c1ccc(N2CCS(=O)(=O)CC2)cc1` (single isomer, unassigned) [Example 45, (1R,2R)-N-((R or S)-1-cyanoethyl)-2-(2-(2,4-difluorophenyl)-4-(4-(1,1-dioxidothiomorpholino)phenyl)oxazol-5-yl)cyclohexanecarboxamide], the IC50 on human cathepsin K worked out at 32.7 nM.

For the compound `N#CC1(NC(=O)[C@@H]2CCCC[C@H]2c2oc(N3CCOCC3)nc2-c2ccc(N3CCS(=O)(=O)CC3)cc2)CC1` [Example 47, (1R,2R)-N-(1-cyanocyclopropyl)-2-(4-(4-(1,1-dioxidothiomorpholino)phenyl)-2-morpholinooxazol-5-yl)cyclohexanecarboxamide], the IC50 at human cathepsin K amounted to 3.11 nM. The same measure, in the same setting: the result for `N#CC1(NC(=O)[C@@H]2CCCC[C@H]2c2oc(-c3ccc(Cl)c(F)c3)nc2-c2ccc(N3CCS(=O)(=O)CC3)cc2)CC1` [Example 76, (1R,2R)-2-(2-(4-chloro-3-fluorophenyl)-4-(4-(1,1-dioxidothiomorpholino)phenyl)oxazol-5-yl)-N-(1-cyanocyclopropyl) cyclohexanecarboxamide] reads 1.1 nM; that for `N#CC1(NC(=O)[C@@H]2CCCC[C@H]2c2oc(-c3ccc(F)cc3F)nc2-c2ccc(C(=O)N3CCOCC3)cc2)CC1` [Example 120, (1R,2R)-N-(1-cyanocyclopropyl)-2-(2-(2,4-difluorophenyl)-4-(4-(morpholine-4-carbonyl)phenyl)oxazol-5-yl)cyclohexanecarboxamide], 14.5 nM. For the compound `N#CC1(NC(=O)[C@@H]2CCCC[C@H]2c2oc(-c3ccc(S(=O)(=O)C(F)(F)F)cc3)nc2-c2ccc(N3CCS(=O)(=O)CC3)cc2)CC1` [Example 104, (1R,2R)-N-(1-cyanocyclopropyl)-2-(4-(4-(1,1-dioxidothiomorpholino)phenyl)-2-(4-((trifluoromethyl)sulfonyl)phenyl)oxazol-5-yl)cyclohexanecarboxamide], on human cathepsin K, the IC50 is 2.4 nM. Still for that read-out and setting: the result for `N#CC1(NC(=O)[C@@H]2CCCC[C@H]2c2oc(-c3ccc(F)cc3)nc2-c2ccc(N3CCOCC3)cc2)CC1` [Example 17, (1R,2R)-N-(1-cyanocyclopropyl)-2-(2-(4-fluorophenyl)-4-(4-morpholinophenyl)oxazol-5-yl)cyclohexanecarboxamide] reads 9.36 nM.
